SMILES strings stand for the structures. Several values for one entry are separate records, joined by “and”; a condition that tells them apart may be missing. Equal entries are not always repeated. Structures can show the parent of a compound that is named as a salt.

As to `CC/C=C\CC` [cis-3-hexene], the melting point was -138 °C.

`N#CCc1ccc(I)cc1` [4-iodophenylacetonitrile] yielded a melting point of 53 °C.

In turn, `CC(C)(C)OC(=O)N1CCC[C@H]1CO` [N-boc-L-prolinol] had a melting point of 61 °C.

For the compound `O=C2\C(=C(/N(N2c1ccccc1)C)C)N(C)C` [aminopyrine], the melting point came out at 108 °C.

The compound `CCOc1ccc(NC(C)=O)cc1` [Phenacetin] gave a melting point of 135 °C.

For the compound `CCCCCCCC(=O)O` [octanoic acid], the melting point is 16.3 °C and 17 °C.

`CC#CCCC` [2-hexyne]: the melting point is -90 °C.

As for `Cc1ccc(N)cc1[N+](=O)[O-]` [4-methyl-3-nitroaniline], the melting point came to 77 °C.

`COc1ccc(O)cc1OC` [3,4-dimethoxyphenol] displayed a melting point of 83 °C.

For `CCN(CC)c1ccc(C=O)cc1` [4-diethylaminobenzaldehyde], the melting point turned out to be 40 °C.

`COc1ccc(Cl)cc1N` [5-chloro-o-anisidine] registered a melting point of 83 °C.

Regarding `CCO` [ethanol], the melting point was -114 °C.

In turn, `O=C(Nc1ccccc1)Nc1nnc(C(F)(F)F)s1` [N-phenyl-N'-[5-(trifluoromethyl)-1,3,4-thiadiazol-2-yl]urea] showed a melting point of 150 °C.

`Nc1n[nH]cc1Br` [3-amino-4-bromo-1h-pyrazole]: the melting point was 136 °C.

`[O-][n+]1onc2cc(Cl)ccc21` [5-chlorobenzofuroxan] had a melting point of 47 °C.

Regarding `C1=C\CCCCCC/1` [cis-cyclooctene], the melting point is -16 °C.

`CC(=O)Oc1ccc([N+](=O)[O-])cc1` [4-Nitrophenyl acetate] returned a melting point of 78 °C.

`O=C(Cl)c1cc([N+](=O)[O-])cc([N+](=O)[O-])c1` [3,5-dinitrobenzoyl chloride] registered a melting point of 67 °C.

With `CC#CCOS(=O)(=O)c1ccc(C)cc1` [2-butynyl p-toluenesulfonate], the melting point came to 48 °C.

As to `CCSCC` [diethyl sulfide], the melting point was -104 °C.

With `CC(C)(C)N` [2-amino-2-methylpropane], the melting point is -68 °C.

As for `Cc1cccc2c1-c1nc3ccccc3nc1-2` [1-methylbenzo[3,4]cyclobuta[1,2-b]quinoxaline], the melting point was 135 °C.

For `[O-][n+]1ccccc1S` [2-mercaptopyridine n-oxide], the melting point amounted to 71 °C.

`COc1cc(C=O)cc([N+](=O)[O-])c1O` [5-nitrovanillin] yielded a melting point of 176 °C.

Turning to `O=Cc1ccc(O)c(O)c1O` [2,3,4-trihydroxybenzaldehyde], the melting point is 161 °C.

Compound `O=C(O)Cc1cccc([N+](=O)[O-])c1` [m-nitro_phenylacetic_acid] returned a melting point of 119 °C.

In turn, `CCCCCCCCCCCCCCCCCC(=O)OCC` [ethyl stearate] displayed a melting point of 35 °C.

The compound `Nc1ccccc1I` [o-iodoaniline] displayed a melting point of 58 °C.

In the case of `CCCCCC(C)(C)O` [2-methyl-2-heptanol], the melting point was -50 °C.

Consider `COC(=O)/C=CC(=O)OC` [dimethyl maleate], for which the melting point was -19 °C.

Compound `CC1(C)OC(C)(C(O)(Cc2ccccc2)Cc2ccccc2)CCC1C(=O)O` (centres undefined) had a melting point of 138 °C.

With `OB(O)c1cccnc1OCc1ccccc1` [2-benzyloxypyridine-3-boronic acid], the melting point is 146 °C.

In turn, `Brc1ccc2sccc2c1` [5-bromobenzo[b]thiophene] gave a melting point of 46 °C.

With `CC(=O)OCc1ccccc1` [benzyl acetate], the melting point is -51 °C.

In the case of `O=C(O)CCC(=O)O` [succinic acid], the melting point is 188 °C and 187 °C.

`OB(O)c1ccc(Cl)c(Cl)c1` [3,4-dichlorobenzeneboronic acid] displayed a melting point of 272 °C.

In turn, `Oc1ccc(cc1)C(CC)=C(/CC)c2ccc(O)cc2` [Diethylstilbestrol] registered a melting point of 170 °C.

In the case of `C=CCNC(N)=S` [1-Allylthiourea], the melting point came out at 71 °C.

`CCCCCCCCCCCCCCCCCCS` [1-octadecanethiol]: the melting point was 32 °C.

For `CCCCCCCCC` [Nonane], the melting point is -53 °C.

With `C1CSCCSCCNCCSCCSCCN1` [1,4,10,13-tetrathia-7,16-diazacyclooctadecane], the melting point turned out to be 130 °C.

For the compound `N#CCc1ccc2ccccc2c1` [2-naphthylacetonitrile], the melting point amounted to 83 °C.

As to `CCC1(c2ccccc2)C(=O)NC(=O)N(C)C1=O` (centres undefined) [mephobarbital], the melting point stood at 176 °C.

For `CCOS(=O)(=O)c1ccc(C)cc1` [ethyl_p-toluenesulfonate], the melting point is 34 °C.

In the case of `CCCOC(C)=O` [Propyl acetate], the melting point was -95 °C.

Take `C[C@@H]1C[C@H]2[C@@H]3CCC4=CC(=O)C=C[C@]4(C)[C@@]3(F)[C@@H](O)C[C@]2(C)[C@@]1(O)C(=O)CO` [Dexamethasone]: the melting point turned out to be 262 °C.

The compound `Oc1ccccc1/C=N/n1c(S)nnc1C(F)(F)F` displayed a melting point of 156 °C.

With `O=Cc1ccc(O)c(O)c1` [3,4-dihydroxybenzaldehyde], the melting point was 155 °C.

Turning to `CCCCN1CCCCC1C(=O)Nc1c(C)cccc1C` (centres undefined) [Bupivacaine], the melting point worked out at 108 °C.

For `O=C(O)C1CCCC1` [cyclopentanecarboxylic acid], the melting point was -7 °C.

`CCOC(=O)c1ccccc1C#N` [ethyl_o-cyanobenzoate] registered a melting point of 68 °C.

Regarding `O=C(O)c1cc(O)ccc1O` [2,5-Dihydroxybenzoic acid], the melting point worked out at 205 °C.

Turning to `CCCC(N)=O` [butyramide], the melting point turned out to be 116 °C.

`CCOC(=O)/C(C#N)=C\c1ccc(-c2ccccc2)o1` [Ethyl (2Z)-2-cyano-3-(5-phenyl-2-furyl)acrylate] displayed a melting point of 117 °C.

Consider `CC(C)(C)c1ccc(Br)cc1` [1-bromo-4-tert-butylbenzene], for which the melting point amounted to 16 °C.

As for `CCNCC` [diethylamine], the melting point was -50 °C.

The compound `O=c1ccc2ccccc2[nH]1` [2-hydroxyquinoline] registered a melting point of 198 °C.

In the case of `NNC(=O)c1ccco1` [2-furohydrazide], the melting point is 80 °C.

As to `CCOCCO` [2-Ethoxyethanol], the melting point was -90 °C.

Compound `N#Cc1cccc(-c2ccccc2)c1` [m-cyanobiphenyl] gave a melting point of 49 °C.

With `O=C(c1ccccc1)c1c(F)c(F)c(F)c(F)c1F` [2,3,4,5,6-pentafluorobenzophenone], the melting point is 38 °C.

Regarding `CCCCCCCCCCCC#N` [dodecanonitrile], the melting point is 4 °C.

On to `NC(=O)c1ccc(Br)cc1` [4-bromobenzamide], for which the melting point worked out at 192 °C.

Consider `CCCCCC(C)=O` [Heptan-2-one], for which the melting point was -35 °C.

Turning to `CC(C)(C)c1cc(C#N)cc(C(C)(C)C)c1O` [3,5-di-tert-butyl-4-hydroxybenzonitrile], the melting point amounted to 142 °C.

For the compound `CCCCCCCC(C)=O` [2-nonanone], the melting point is -8 °C.

In turn, `Cc1ccnc2c1NC(=O)c1cccnc1N2C1CC1` [nevirapine] gave a melting point of 248 °C.

For `CC(=N/O)/C(C)=N\O` [(2Z,3Z)-N,N'-Dihydroxybutane-2,3-diimine], the melting point came to 238 °C.

In turn, `Cc1ccc(C(=O)O)cc1Br` [3-bromo-4-methylbenzoic_acid] showed a melting point of 200 °C.

The compound `C1[C@H]3C[C@@H]2C[C@@H](C[C@H]1C2)C3` [Adamantane] yielded a melting point of 269 °C.

In turn, `CCCCCCCCCCCCCCCCCCC` [N-nonadecane] returned a melting point of 33 °C.

In turn, `O=c1ccn([C@@H]2C[C@H](O)[C@@H](CO)O2)c(=O)[nH]1` [2'-Deoxyuridine] showed a melting point of 163 °C.

With `Cc1ccccc1OP(=O)(Oc1ccccc1C)Oc1ccccc1C` [Tris(2-methylphenyl) phosphate], the melting point was -33 °C.

In the case of `COc1ccc(CCN2CCC(Nc3nc4ccccc4n3Cc3ccc(F)cc3)CC2)cc1` [astemizole], the melting point came to 149 °C.

The compound `O=Cc1ccc(O)cc1O` [b-Resorcylaldehyde] gave a melting point of 136 °C.

In turn, `Oc1ccc(Cl)cc1Cl` [2,4-Dichlorophenol] came in with a melting point of 42.5 °C.

Regarding `Nc1ncnc2c1ncn2[C@@H]1O[C@H](CO)[C@@H](O)[C@H]1O` [Adenosine], the melting point stood at 234 °C.

As for `S=C=Nc1ccc(I)cc1` [4-iodophenyl isothiocyanate], the melting point worked out at 76 °C.

For `NCc1ccccc1` [1-Phenylmethanamine], the melting point is -46 °C.

As to `Clc1ccc(-c2cc(Cl)c(Cl)cc2Cl)cc1Cl` [PCB-118], the melting point was determined as 110 °C.

Compound `Nc1ccc([N+](=O)[O-])cc1` [4-nitroaniline] had a melting point of 148 °C.

`CCOC(=O)c1sc(N)nc1C` [ethyl 2-amino-4-methylthiazole-5-carboxylate] registered a melting point of 174 °C.

Take `NC(N)=Nc1nc(CSCCC(N)=N[S+2](N)([O-])[O-])cs1`: the melting point was 163 °C.

Compound `NC(=O)c1ccc(O)cc1` [4-hydroxybenzamide] gave a melting point of 161 °C.

In turn, `O=C(O)Cc1ccc(OC(F)(F)F)cc1` [4-(trifluoromethoxy)phenylacetic acid] returned a melting point of 87 °C.

Take `ClCc1cccc(CCl)c1` [m-xylylene dichloride]: the melting point is 35 °C.

`CCCCCCCCN(CCCCCCCC)CCCCCCCC` [tri-n-octylamine]: the melting point was -39 °C.

On to `Cn1c(=O)c2[nH]cnc2n(C)c1=O` [theophylline], for which the melting point is 272 °C and 274 °C.

As to `COc1ccc(CC(=O)O)cc1` [4-methoxyphenylacetic acid], the melting point was 87 °C.

With `CCN(C)C` [N,N-dimethylethylamine], the melting point was -140 °C.

With `CC(C)(C)NCC(O)COc1cc(Cl)ccc1Cl` (centres undefined) [cloranolol], the melting point worked out at 82 °C.

Turning to `Cc1cccc(C)c1N` [2,6-dimethylaniline], the melting point was 11 °C.

The compound `CC(C)(C)C(=O)Nc1ccncc1` [4-(2,2,2-trimethylacetamido)pyridine] gave a melting point of 136 °C.

`CI` [iodomethane]: the melting point was -66 °C.

As a reminder, the melting point is the temperature, or range, at which the solid turns liquid.

The record behind these values is the Bradley open melting point set (2014).
